Experimental data published in US11479528B2, “Heat shock protein 90 inhibitors” (TAIPEI MEDICAL UNIVERSITY, priority 2017, dated 2022).
Like-named read-outs stand apart in the source and are kept apart here.

How the values were obtained:
lung A549 = test: Sulforhodamine B (SRB) assay, lung A549; assay type: cell-based, human; settings: Homo sapiens
Procedure: Human cancer cells were purchased from the American Type Culture Collection (Manassas, Va., USA).
Cells were seeded in 96-well plates in medium with 5% fetal bovine serum. […] Unbound sulforhodamine B was washed out by 1% acetic acid and sulforhodamine B-bound cells were solubilized with 10 mmol/L Trizma base. […] Using the following absorbance measurements, such as time zero (T0), control growth (C), and cell growth in the presence of the drug (Tx), the percentage growth was calculated at each of the compound concentrations levels. Percentage growth inhibition was calculated as […].

colorectal HCT116 = test: Sulforhodamine B (SRB) assay, colorectal HCT116; assay type: cell-based; settings: Homo sapiens
Procedure: (§1) Human cancer cells were purchased from the American Type Culture Collection (Manassas, Va., USA). These cell lines were cultured in RPMI 1640 medium or DMEM supplemented with 10% FBS (v/v) and pencillin (100 U/mL)/streptomycin (100 ug/mL)/amphotericin B (0.25 ug/mL). Cultures were maintained at 37° C. in a humidified atmosphere of 5% CO2/95% air.
(§2) Cells were seeded in 96-well plates in medium with 5% fetal bovine serum. After 24 h, cells were fixed with 10% trichloroacetic acid to represent cell population at the time of drug addition (T0). After additional incubation of DMSO or drugs for 48 h, cells were fixed with 10% trichloroacetic acid and sulforhodamine B at 0.4% (w/v) in 1% acetic acid was added to stain cells. Unbound sulforhodamine B was washed out by 1% acetic acid and sulforhodamine B-bound cells were solubilized with 10 mmol/L Trizma base. The absorbance was read at a wavelength of 515 nm. Using the following absorbance measurements, such as time zero (T0), control growth (C), and cell growth in the presence of the drug (Tx), the percentage growth was calculated at each of the compound concentrations levels. Percentage growth inhibition was calculated as […].

liver Hep3B = test: Sulforhodamine B (SRB) assay, liver Hep3B; assay type: cell-based; settings: Homo sapiens, 48 h, read-out: GI50 Liver Hep3B
Procedure: as §1, §2

breast MDA-MB-231 = test: Sulforhodamine B (SRB) assay, breast MDA-MB-231; assay type: cell-based; settings: Homo sapiens, read-out: GI50 Breast MDA-MB-231
Procedure: as §1, §2

HUVEC cells = test: Sulforhodamine B (SRB) assay, HUVEC; settings: Homo sapiens, HUVEC, 48 h, read-out: GI50 HUVEC
Procedure: as §1, §2

HSP90 α protein = HSP90 α protein (Homo sapiens, UniProt P07900); test: HSP90 ATP-binding / fluorescence polarization competition assay (enzyme inhibition)
Procedure: To assess the inhibition of HSP90 activity within a cellular context, cells were treated with certain substituted aromatic compounds of formula (I) and the inhibition of HSP90 ATP-binding activity in cells was determined by using an ATP pull-down assay. Cells were treated with the compounds for 24 hours and then lysed in TNESV buffer (50 mM Tris, 2 mM EDTA, […], 1 mM activated sodium orthovanadate, 25 mM NaF, 1% Triton X-100 [pH 7.5]) for 30 min at 4° C. Lysates were spun for 30 min at 12000 rpm at 4° C. Protein (200 ug) was incubated with conditioned γ-ATP-polyacrylamide resin in incubation buffer (10 mM Tris-HCl, 50 mM KCl, 5 mM MgCl2, 20 mM Na2MoO4, 0.01% Nonidet P-40) overnight at 4° C., rotating. The resin was then washed four times with incubation buffer. Bound proteins were isolated by boiling with SDS buffer. For the competition studies, fluorescence polarization assays were performed under the following conditions: each 96-well plate contained 5 nM fluorescent GM (geldanamycin), 30 nM HSP90 α protein, and tested inhibitor in a final volume of 100 uL. For each assay, background wells (buffer only), tracer controls (free, fluorescent GMonly), and bound GM controls (fluorescent GM in the presence of HSP90) were included on each assay plate. The fraction of tracer bound to HSP90 was correlated to the mP value and plotted against log 10 values of competitor concentrations. The inhibitor concentration at which 50% of bound GM was displaced was obtained by fitting the data.

[1] = test system: human colon HCT116 xenograft; test: Human colon HCT116 xenograft model; settings: 100 mg/kg, po; for TGI, tumor growth inhibition: n = 7-8
Procedure: An in vivo study was conducted to evaluate the efficacy of compounds of formula (I) in suppressing tumor growth in a human colon HCT116 xenograft model.

[2] = Pharmacokinetic profiles in rat; settings: in vivo
Procedure: A pharmacokinetic study was conducted to evaluate the pharmacokinetic properties of compounds of formula (I).

[3] = Maximum tolerated dose and therapeutic index in vivo
prostate PC3 = test: Sulforhodamine B (SRB) assay, prostate PC3; assay type: cell-based; settings: Homo sapiens, Table 1, 48 h
Procedure: as §1, §2

[4] = A549, Table 1, SRB, 48 h, read-out: GI50 Lung A549
[5] = HCT-116, Table 1, SRB, 48 h, read-out: GI50 Colorectal HCT116

Structure (SMILES): CCN(C(=O)c1cc(C(C)C)c(O)cc1O)c1ccncc1 [Compound 19b, N-ethyl-2,4-dihydroxy-5-isopropyl-N-(pyridin-4-yl)benzamide]
- GI50 (lung A549; [4]): 0.12 ± 0.01 µM
- GI50 (lung A549; A549, Table 2, SRB, read-out: A549 GI50): 0.12 ± 0.01 µM
- GI50 (colorectal HCT116; [5]): 0.64 ± 0.41 µM
- GI50 (colorectal HCT116; HCT-116, Table 2, SRB, read-out: HCT116 GI50): 0.64 ± 0.41 µM
- GI50 (liver Hep3B; Table 1, SRB): 0.1 ± 0.01 µM
- GI50 (breast MDA-MB-231; MDA-MB-231, Table 1, SRB, 48 h): 0.08 ± 0.01 µM
- GI50 (HUVEC cells): < 0.1 µM
- IC50 (HSP90 α protein; 5 nM fluorescent GM, 30 nM HSP90 α, read-out: HSP90 IC50 enzyme inhibition): 0.109 ± 0.00535 µM
- TGI, tumor growth inhibition ([1]; qd): 29.1%
- Vd ([2]; iv, 2 mg/kg): 12 ± 8.9 L/kg
- AUC(0-inf) ([2]; iv, 2 mg/kg, AUC(0-inf), IV (2 mg/kg)): 442 ± 49 ng·h/mL
- clearance ([2]; iv, 2 mg/kg, CL, IV (2 mg/kg)): 75 ± 4.8 mL/min/kg
- half-life ([2]; iv, 2 mg/kg, T1/2, rat, IV (2 mg/kg)): 8.1 ± 4.7 h
- Cmax ([2]; po, 20 mg/kg): 51 ± 9 ng/mL
- Tmax ([2]; po, 20 mg/kg): 0.3 ± 0.1 h
- bioavailability ([2]; po, 20 mg/kg): 11%
- AUC(0-inf) ([2]; po, 20 mg/kg, AUC(0-inf), PO (20 mg/kg)): 485 ± 103 ng·h/mL
- half-life ([2]; po, 20 mg/kg, T1/2, rat, PO (20 mg/kg)): 11 ± 7.6 h

Structure (SMILES): CCN(C(=O)c1cc(C(C)C)c(O)cc1O)c1ccc2[nH]ccc2c1 [Compound 20c, N-ethyl-2,4-dihydroxy-N-(1H-indol-5-yl)-5-isopropylbenzamide]
- GI50 (lung A549; A549, 48 h, read-out: GI50 Lung A549): 0.11 ± 0.01 µM
- GI50 (lung A549; A549, read-out: A549 GI50): 0.11 ± 0.01 µM
- GI50 (colorectal HCT116; HCT-116, 48 h, read-out: GI50 Colorectal HCT116): 0.37 ± 0.05 µM
- GI50 (colorectal HCT116; HCT-116, read-out: HCT116 GI50): 0.37 ± 0.05 µM
- GI50 (liver Hep3B): 0.11 ± 0.02 µM
- GI50 (breast MDA-MB-231; MDA-MB-231, 48 h): 0.08 ± 0.01 µM
- GI50 (HUVEC cells): < 0.1 µM
- IC50 (HSP90 α protein): 0.117 ± 0.00962 µM
- Loss of Body ([1]; qd × 7/5 on 2 off, Day 7): −15.4%
- TGI, tumor growth inhibition ([1]; qd × 7/5 on 2 off): 33.1%
- AUC(0-inf) ([2]; iv, 2 mg/kg): 234 ± 114 ng·h/mL
- Vd ([2]; iv, 2 mg/kg): 9 ± 2.8 L/kg
- clearance ([2]; iv, 2 mg/kg): 170 ± 64 mL/min/kg
- half-life ([2]; iv, 2 mg/kg): 1.5 ± 0.5 h
- AUC(0-inf) ([2]; po, 20 mg/kg): 499 ± 38 ng·h/mL
- Cmax ([2]; po, 20 mg/kg): 67 ± 23 ng/mL
- Tmax ([2]; po, 20 mg/kg): 2.7 ± 1.2 h
- bioavailability ([2]; po, 20 mg/kg): 22%
- half-life ([2]; po, 20 mg/kg): 5.9 ± 1.6 h
- TI, Therapeutic Index, ratio of MTD to minimum efficacious dose (MED) ([3]; MTD/MED): 1
- MTD ([3]; in vivo, po): 100 mg/kg

Structure (SMILES): CC(C)c1cc(C(=O)Nc2cnc3c(ccn3C)c2)c(O)cc1O [Compound 24b, 2,4-dihydroxy-5-isopropyl-N-(1-methyl-1H-pyrrolo[2,3-b]pyridin-5-yl)benzamide]
- GI50 (lung A549; [4]): > 10 µM
- GI50 (colorectal HCT116; [5]): > 10 µM
- GI50 (prostate PC3): > 10 µM

Structure (SMILES): CC(C)c1cc(C(=O)Nc2cnc3[nH]ncc3c2)c(O)cc1O [Compound 26a, 2,4-dihydroxy-5-isopropyl-N-(1H-pyrazolo[3,4-b]pyridin-5-yl)benzamide]
- GI50 (lung A549; [4]): > 10 µM
- GI50 (colorectal HCT116; [5]): > 10 µM
- GI50 (prostate PC3): > 10 µM

Structure (SMILES): CC(C)c1cc(C(=O)Nc2ncnc3c2ccn3C)c(O)cc1O [Compound 27a, 2,4-dihydroxy-5-isopropyl-N-(7-methyl-7H-pyrrolo[2,3-d]pyrimidin-4-yl)benzamide]
- GI50 (colorectal HCT116; [5]): > 10 µM
- GI50 (prostate PC3): > 10 µM

Structure (SMILES): CC(C)c1cc(C(=O)N(C)c2ncnc3c2ccn3C)c(O)cc1O [Compound 27b, 2,4-dihydroxy-5-isopropyl-N-methyl-N-(7-methyl-7H-pyrrolo[2,3-d]pyrimidin-4-yl)benzamide]
- GI50 (colorectal HCT116; [5]): 8.96 ± 0.18 µM
- GI50 (prostate PC3): 8.49 ± 0.49 µM

Structure (SMILES): CCN(C(=O)c1cc(C(C)C)c(O)cc1O)c1ncnc2c1ccn2C [Compound 27c, N-ethyl-2,4-dihydroxy-5-isopropyl-N-(7-methyl-7H-pyrrolo[2,3-d]pyrimidin-4-yl)benzamide]
- GI50 (colorectal HCT116; [5]): 3.49 ± 0.15 µM
- GI50 (prostate PC3): 6.68 ± 0.55 µM

Structure (SMILES): CCCN(C(=O)c1cc(C(C)C)c(O)cc1O)c1ncnc2c1ccn2C [Compound 27d, 2,4-dihydroxy-5-isopropyl-N-(7-methyl-7H-pyrrolo[2,3-d]pyrimidin-4-yl)-N-propylbenzamide]
- GI50 (colorectal HCT116; [5]): > 10 µM
- GI50 (prostate PC3): > 10 µM

Structure (SMILES): CC(C)c1cc(C(=O)N(c2ncnc3c2ccn3C)C(C)C)c(O)cc1O [Compound 27e, 2,4-dihydroxy-N, 5-diisopropyl-N-(7-methyl-7H-pyrrolo[2,3-d]pyrimidin-4-yl)benzamide]
- GI50 (colorectal HCT116; [5]): 8.77 ± 0.1 µM
- GI50 (prostate PC3): > 10 µM

Structure (SMILES): CCCN(C(=O)c1cc(C(C)C)c(O)cc1O)c1cnc2ccccc2c1 [Compound 28d, 2,4-dihydroxy-5-isopropyl-N-propyl-N-(quinolin-3-yl)benzamide]
- GI50 (lung A549; [4]): 1.16 ± 0.1 µM
- GI50 (colorectal HCT116; [5]): 1.21 ± 0.13 µM
- GI50 (prostate PC3): 2.33 ± 0.04 µM

Structure (SMILES): CC(C)c1cc(C(=O)N(C)c2cccc3ncccc23)c(O)cc1O [Compound 29b, 2,4-dihydroxy-5-isopropyl-N-methyl-N-(quinolin-5-yl)benzamide]
- GI50 (lung A549; [4]): > 10 µM
- GI50 (colorectal HCT116; [5]): > 10 µM
- GI50 (prostate PC3): > 10 µM

Structure (SMILES): CC(C)c1cc(C(=O)N(C)c2cccc3cccnc23)c(O)cc1O [Compound 31b, 2,4-dihydroxy-5-isopropyl-N-methyl-N-(quinolin-8-yl)benzamide]
- GI50 (lung A549; [4]): 8.7 ± 0.25 µM
- GI50 (colorectal HCT116; [5]): > 10 µM
- GI50 (prostate PC3): 8.93 ± 0.25 µM

Structure (SMILES): CCN(C(=O)c1cc(C(C)C)c(O)cc1O)c1cc(C)nc2ccccc12 [Compound 32c, N-ethyl-2,4-dihydroxy-5-isopropyl-N-(2-methylquinolin-4-yl)benzamide]
- GI50 (lung A549; [4]): 5.67 ± 0.06 µM
- GI50 (colorectal HCT116; [5]): 5.99 ± 0.3 µM
- GI50 (prostate PC3): 6.3 ± 0.3 µM

Structure (SMILES): CC(C)c1cc(C(=O)N(C)c2ccc3c(c2)CCCN3)c(O)cc1O [Compound 33a, 2,4-dihydroxy-5-isopropyl-N-methyl-N-(1,2,3,4-tetrahydroquinolin-6-yl)benzamide]
- GI50 (colorectal HCT116; [5]): 5.79 ± 0.11 µM
- GI50 (prostate PC3): 7.66 ± 0.42 µM

Structure (SMILES): CCN(C(=O)c1cc(C(C)C)c(O)cc1O)c1ccc2c(c1)CCCN2 [Compound 33b, N-ethyl-2,4-dihydroxy-5-isopropyl-N-(1,2,3,4-tetrahydroquinolin-6-yl)benzamide]
- GI50 (colorectal HCT116; [5]): 5.38 ± 0.1 µM
- GI50 (prostate PC3): 6.01 ± 0.41 µM

Structure (SMILES): CC(C)c1cc(C(=O)N(C)c2ccc3c(c2)CCCN3C)c(O)cc1O [Compound 33c, 2,4-dihydroxy-5-isopropyl-N-methyl-N-(1-methyl-1,2,3,4-tetrahydroquinolin-6-yl)benzamide]
- GI50 (colorectal HCT116; [5]): 6.51 ± 0.09 µM
- GI50 (prostate PC3): 8.5 ± 0.45 µM

Structure (SMILES): CCN(C(=O)c1cc(C(C)C)c(O)cc1O)c1ccc2c(c1)CCCN2C [Compound 33d, N-ethyl-2,4-dihydroxy-5-isopropyl-N-(1-methyl-1,2,3,4-tetrahydroquinolin-6-yl)benzamide]
- GI50 (colorectal HCT116; [5]): 5.71 ± 0.12 µM
- GI50 (prostate PC3): 8.18 ± 0.46 µM
